# Experimental data as given in US6984649B1, “Pyridine derivatives” (Bayer Aktiengesellschaft, priority 2000, dated 2006).
# System: A549 human lung epithelium cell line
# Assay: RANTES production in response to TNF-α from A549 cells
# Format: cell-based
# Details: Homo sapiens, A549, A549 cells, 100 ng/ml TNF-α, read-out: Cellular activity grade (A549) (Cellular IC50)
# Outline: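 RANTES released into supernatant was measured by DELFIA-type sandwich immunoassay, Eu-labelled detection antibody, 340 nm excitation/615 nm emission, recombinant RANTES standard. Beforehand, cells seeded at 4×10^4/well received test compound (1% DMSO) for 1 h at 37 °C, followed by 24 h TNF-α (100 ng/ml) stimulation.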
row,SMILES,IC50 [nM]
1,O=C1CCc2c(C3CCNCC3)cc(-c3c(O)cccc3OCC3CC3)nc2N1 [Example 27-04],< 1000
2,CCOC(=O)C1Cc2c(C3CCCNC3)cc(-c3c(O)cccc3OCC3CC3)nc2NC1=O (centres unmarked) [Example 26-03],< 1000
3,CCCOc1cccc(O)c1-c1cc(C2CCCNC2)c2c(n1)NC(=O)C(C(=O)OCC)C2 (centres unmarked) [Example 26-06],< 1000
4,O=C(NC1CCCCCC1)c1cc2c(C3CCCNC3)cc(-c3c(O)cccc3OCC3CC3)nc2[nH]c1=O (centres unmarked) [Example 31-24],< 1000
5,CCCOc1cccc(O)c1-c1cc(C2CCNCC2)c2c(n1)NC(=O)CC2 [Example 27-05],< 1000
6,O=C(c1cc2c(C3CCCNC3)cc(-c3c(O)cccc3OCC3CC3)nc2[nH]c1=O)N1CCCC1 (centres unmarked) [Example 31-05],1000 to 10000
7,C[C@@H](NC(=O)c1cc2c(C3CCCNC3)cc(-c3c(O)cccc3OCC3CC3)nc2[nH]c1=O)c1ccccc1 (some centres unmarked) [Example 31-15],< 1000
8,CN(C)C(=O)c1cc2c(C3CCCNC3)cc(-c3c(O)cccc3OCC3CC3)nc2[nH]c1=O (centres unmarked) [Example 31-04],1000 to 10000
9,O=C(c1cc2c(C3CCCNC3)cc(-c3c(O)cccc3OCC3CC3)nc2[nH]c1=O)N1CCNCC1 (centres unmarked) [Example 31-09],> 10000
10,N#Cc1cc2c(C3CCCNC3)cc(-c3c(O)cccc3OCC3CC3)nc2[nH]c1=O (centres unmarked) [Example 25-06],< 1000
11,O=C(NC1CCCCC1)c1cc2c(C3CCCNC3)cc(-c3c(O)cccc3OCC3CC3)nc2[nH]c1=O (centres unmarked) [Example 31-18],< 1000
12,O=C(NC(c1ccccc1)c1ccccc1)c1cc2c(C3CCCNC3)cc(-c3c(O)cccc3OCC3CC3)nc2[nH]c1=O (centres unmarked) [Example 31-13],< 1000
13,C[C@H](NC(=O)c1cc2c(C3CCCNC3)cc(-c3c(O)cccc3OCC3CC3)nc2[nH]c1=O)C(=O)O (some centres unmarked) [Example 31-16],1000 to 10000
14,O=C(NC1CCCC1)c1cc2c(C3CCCNC3)cc(-c3c(O)cccc3OCC3CC3)nc2[nH]c1=O (centres unmarked) [Example 31-23],< 1000
15,CCCOc1cccc(O)c1-c1cc(C2CCCNC2)c2c(n1)NC(=O)CC2 (centres unmarked) [Example 27-02],< 1000
16,NC(=O)C1Cc2c(C3CCCNC3)cc(-c3c(O)cccc3OCC3CC3)nc2NC1=O (centres unmarked) [Example 26-05],< 1000
17,CNC(=O)c1cc2c(C3CCCNC3)cc(-c3c(O)cccc3OCC3CC3)nc2[nH]c1=O (centres unmarked) [Example 31-03],< 1000
18,CC(C)NC(=O)c1cc2c(C3CCCNC3)cc(-c3c(O)cccc3OCC3CC3)nc2[nH]c1=O (centres unmarked) [Example 31-10],< 1000
19,O=C(NC1Cc2ccccc2C1)c1cc2c(C3CCCNC3)cc(-c3c(O)cccc3OCC3CC3)nc2[nH]c1=O (centres unmarked) [Example 31-12],< 1000

row,SMILES,IC50 [nM]
1,O=C(NCC1CCCCC1)c1cc2c(C3CCCNC3)cc(-c3c(O)cccc3OCC3CC3)nc2[nH]c1=O (centres unmarked) [Example 31-19],> 10000
2,O=C(NC1CC1)c1cc2c(C3CCCNC3)cc(-c3c(O)cccc3OCC3CC3)nc2[nH]c1=O (centres unmarked) [Example 31-21],< 1000
3,"O=C1CCc2c(C3CCCNC3)cc(-c3c(O)cccc3OCC3CC3)nc2N1 (centres unmarked) [Example 27-03, 7-[2-(cyclopropylmethoxy)-6-hydroxyphenyl]-5-(3-piperidinyl)-3,4-dihydro-1,8-naphthyridin-2(1H)-one]",< 1000
4,CCC(CC)NC(=O)c1cc2c(C3CCCNC3)cc(-c3c(O)cccc3OCC3CC3)nc2[nH]c1=O (centres unmarked) [Example 31-25],< 1000
5,O=C(NCCc1ccccc1)c1cc2c(C3CCCNC3)cc(-c3c(O)cccc3OCC3CC3)nc2[nH]c1=O (centres unmarked) [Example 31-17],1000 to 10000
6,O=C(NCCO)c1cc2c(C3CCCNC3)cc(-c3c(O)cccc3OCC3CC3)nc2[nH]c1=O (centres unmarked) [Example 31-20],1000 to 10000
7,C[C@H](NC(=O)c1cc2c(C3CCCNC3)cc(-c3c(O)cccc3OCC3CC3)nc2[nH]c1=O)c1ccccc1 (some centres unmarked) [Example 31-14],< 1000
8,NC(=O)c1cc2c(C3CCCNC3)cc(-c3c(O)cccc3OCC3CC3)nc2[nH]c1=O (centres unmarked) [Example 25-08],< 1000
9,COCCNC(=O)c1cc2c(C3CCCNC3)cc(-c3c(O)cccc3OCC3CC3)nc2[nH]c1=O (centres unmarked) [Example 31-07],< 1000
10,CCCC(CCC)NC(=O)c1cc2c(C3CCCNC3)cc(-c3c(O)cccc3OCC3CC3)nc2[nH]c1=O (centres unmarked) [Example 31-26],< 1000
11,O=C(NCC(F)(F)F)c1cc2c(C3CCCNC3)cc(-c3c(O)cccc3OCC3CC3)nc2[nH]c1=O (centres unmarked) [Example 31-27],< 1000
12,CN(C)CCNC(=O)c1cc2c(C3CCCNC3)cc(-c3c(O)cccc3OCC3CC3)nc2[nH]c1=O (centres unmarked) [Example 31-11],< 1000
13,O=c1[nH]c2nc(-c3c(O)cccc3OCC3CC3)cc(C3CCCNC3)c2cc1[N+](=O)[O-] (centres unmarked) [Example 25-05],1000 to 10000
14,CCOC(=O)C1Cc2c(C3CCNCC3)cc(-c3c(O)cccc3OCC3CC3)nc2NC1=O (centres unmarked) [Example 26-04],< 1000
15,O=C(c1cc2c(C3CCCNC3)cc(-c3c(O)cccc3OCC3CC3)nc2[nH]c1=O)N1CCOCC1 (centres unmarked) [Example 31-08],1000 to 10000
16,O=C(NC1CCC1)c1cc2c(C3CCCNC3)cc(-c3c(O)cccc3OCC3CC3)nc2[nH]c1=O (centres unmarked) [Example 31-22],< 1000
17,O=c1[nH]c2nc(-c3c(O)cccc3OCC3CC3)cc(C3CCCNC3)c2cc1S(=O)(=O)c1ccccc1 (centres unmarked) [Example 25-07],< 1000
18,O=C(NCc1ccccc1)c1cc2c(C3CCCNC3)cc(-c3c(O)cccc3OCC3CC3)nc2[nH]c1=O (centres unmarked) [Example 31-06],< 1000

# Second part, the compound after the results:
row,IC50 [nM],SMILES
1,1000 to 10000,N#Cc1c(N2CCCNCC2)cc(-c2ccccc2O)nc1N [Example 34-08]
2,< 1000,CNCCNc1cc(-c2ccccc2O)nc(N)c1C#N [Example 34-12]
3,> 10000,N#Cc1c(NCCNS(=O)(=O)c2ccccc2)cc(-c2c(O)cccc2OCC2CC2)nc1N [Example 34-17]
4,> 10000,N#Cc1c(N2CCCC(C(N)=O)C2)cc(-c2ccccc2O)nc1N (centres unmarked) [Example 34-06]
5,< 1000,N#Cc1c(NCCN)cc(-c2ccccc2O)nc1N [Example 34-10]
6,< 1000,N#Cc1c(NCCNC(=O)Nc2ccccc2)cc(-c2c(O)cccc2OCC2CC2)nc1N [Example 34-18]
7,< 1000,N#Cc1c(NCCNC(=O)c2ccccc2)cc(-c2c(O)cccc2OCC2CC2)nc1N [Example 34-16]
8,1000 to 10000,N#Cc1c(NCCCN)cc(-c2ccccc2O)nc1N [Example 34-11]
9,< 1000,N#Cc1c(NCCNCc2ccccc2)cc(-c2c(O)cccc2OCC2CC2)nc1N [Example 34-15]
10,1000 to 10000,N#Cc1c(N2CCNCC2)cc(-c2ccccc2O)nc1N [Example 34-09]
11,1000 to 10000,N#Cc1c(NC2CCNCC2)cc(-c2ccccc2O)nc1N [Example 34-07]
12,< 1000,CC(=O)NCCNc1cc(-c2c(O)cccc2OCC2CC2)nc(N)c1C#N [Example 34-19]
13,< 1000,N#Cc1c(NCCNCc2ccccc2)cc(-c2ccccc2O)nc1N [Example 34-13]
